Where two headings read alike, the source gives them in different places.
How the values were obtained:
TSPO [1] = settings: low:high affinity ratio; resolved enantiomers
Experimental: (§1) Membrane protein was prepared from human platelets obtained from 4 donor whole blood samples. […] Platelet pellets were homogenised in 10 ml buffer 1 (0.32 mM sucrose, 5 mM Tris base, 1 mM MgCl2, pH 7.4, 4° C.). The homogenates were centrifuged at 48,000×g for 15 minutes at 4° C. in a Beckman J2-MC centrifuge. The supernatant was removed and pellets were re-suspended in at least 10 ml buffer 2 (50 mM Tris base, 1 mM MgCl2, pH 7.4, 4° C.) and washed by centrifugation at 48,000×g for 15 min at 4° C. in buffer 2. Membranes were suspended in 2 ml buffer 2 and the protein concentration was determined using Protein Assay Kit II (Bio Rad cat #500-0002). Aliquots were stored at −80° C. until use.
(§2) Aliquots of membrane suspension were thawed and homogenised with assay buffer 3 (50 mM Tris base, 140 mM NaCl, 1.5 mM MgCl2, 5 mM KCl, 1.5 mM CaCl2, pH 7.4, 37° C.). […] Non-radioactive Compound 1 was diluted on a Beckman Biomek 2000 workstation at 11 serial dilutions ranging from 1 μM to 0.01 nM. GE180 and non-radioactive Compound 2 were diluted at 11 serial dilutions ranging from 100 μM to 1 nM. Total and nonspecific binding assessments were also performed. 160 μL of platelet membranes diluted to 30 μg/mL were added to the assay plate for a final volume of 200 μL/well. Assay plates were incubated at 37° C. for at least one hour with termination of incubation by filtering onto GF/B glass fibre plates (Perkin Elmer; cat #6005177) pre-soaked in 0.1% PEI in saline for 60 minutes. Assay plates were rinsed five to six times with ice cold buffer 4 (50 mM Tris Base, 1.4 mM MgCl2, pH 7.4, 4° C.) on a Perkin Elmer Filtermate 196. Plates were then dried, the bottoms sealed, and 50 μL of MicroScint 20 (Perkin Elmer cat #6013621) was added to each well. After sealing the tops, the plates were allowed to equilibrate for at least 30 minutes and the captured radioactivity was counted on a Perkin Elmer TopCount NTX. Compound 1 and Compound 2 were used as racemates.
(§3) Compound 1 and Compound 2 were resolved into enantiomers and the competitive binding assay was performed using platelets isolated from the same 4 human donor whole blood samples as described in Example 6.

TSPO [2] = target: T1, TSPO (Homo sapiens, UniProt P30536); experiment: biochemical
Experimental: as §1, §2, §3

TSPO [3] = target: T2, TSPO (Homo sapiens, UniProt P30536, T147A); experiment: biochemical
Experimental: as §1, §2, §3

TSPO [4] = settings: versus [11C]PBR28; cited from earlier work
TSPO [5] = settings: low:high affinity ratio; Compounds 1 and 2 used as racemates
Experimental: as §1
(§4) Aliquots of membrane suspension were thawed and homogenised with assay buffer 3 (50 mM Tris base, 140 mM NaCl, 1.5 mM MgCl2, 5 mM KCl, 1.5 mM CaCl2, pH 7.4, 37° C.). […] Non-radioactive Compound 1 was diluted on a Beckman Biomek 2000 workstation at 11 serial dilutions ranging from 1 μM to 0.01 nM. GE180 and non-radioactive Compound 2 were diluted at 11 serial dilutions ranging from 100 μM to 1 nM. Total and nonspecific binding assessments were also performed. 160 μL of platelet membranes diluted to 30 μg/mL were added to the assay plate for a final volume of 200 μL/well. Assay plates were incubated at 37° C. for at least one hour with termination of incubation by filtering onto GF/B glass fibre plates (Perkin Elmer; cat #6005177) pre-soaked in 0.1% PEI in saline for 60 minutes. Assay plates were rinsed five to six times with ice cold buffer 4 (50 mM Tris Base, 1.4 mM MgCl2, pH 7.4, 4° C.) on a Perkin Elmer Filtermate 196. Plates were then dried, the bottoms sealed, and 50 μL of MicroScint 20 (Perkin Elmer cat #6013621) was added to each well. After sealing the tops, the plates were allowed to equilibrate for at least 30 minutes and the captured radioactivity was counted on a Perkin Elmer TopCount NTX.

TSPO [6] = target: T1, TSPO; experiment: biochemical; remark: listed apart in the source
Experimental: as §1, §4

TSPO [7] = target: T2, TSPO; experiment: biochemical; remark: listed apart in the source
Experimental: as §1, §4

TSPO [8] = settings: in vitro; LABs versus HABs; cited from earlier work

T1 sequence (P30536 2-169): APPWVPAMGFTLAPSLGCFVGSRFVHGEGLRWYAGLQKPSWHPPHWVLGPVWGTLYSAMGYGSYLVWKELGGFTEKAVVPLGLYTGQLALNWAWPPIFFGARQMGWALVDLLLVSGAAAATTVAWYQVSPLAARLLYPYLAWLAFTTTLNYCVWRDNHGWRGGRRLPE
T2 sequence (P30536 2-169 T147A): as the sequence (P30536 2-169) above, with T146A counted along it

Row | Ki (TSPO [2]) | Ki (TSPO [3]) | SMILES | Low:High (TSPO [1]) | other results
1 | 125 nM | 4 nM | CCN(Cc1ccccc1)C(=O)[C@@H]1CCCc2c1c1ccccc1n2CCF [Compound 1 E2] | 32 | 
2 |  |  | CCC(C)N(C)C(=O)c1cc2ccccc2c(-c2ccccc2Cl)n1 (stereo not drawn) [PK11195, reference compound] | 1 | 
3 | 5 nM | 4 nM | CCN(Cc1ccccc1)C(=O)[C@H]1CCCc2c1c1ccccc1n2CCF [Compound 1 E1, (S)—N-benzyl-N-ethyl-9-(2-fluoroethyl)-2,3,4,9-tetrahydro-1H-carbazole-4-carboxamide] | 1 | 
4 | 402 nM | 83 nM | CC(C)N(C)C(=O)[C@@H]1CCCc2c1c1ccccc1n2CCF [Compound 2 E2] | 5 | 
5 |  |  | CCC(C)N(C)C(=O)c1cc2ccccc2c(-c2ccccc2Cl)n1 (stereo not drawn) [[11C]PK11195] |  | in vivo specific binding in monkey brain, lower than that reported for [11C]PBR28 (TSPO [4]): ~80 fold
6 |  |  | CCN(CC)C(=O)[C@H]1CCCc2c1c1c(OC)cccc1n2CCF (stereo in doubt) [GE180, 9-(2-Fluoro-ethyl)-5-methoxy-2,3,4,9-tetrahydro-1H-carbazole-4-carboxylic acid diethylamide, reference compound] | 3 | Low:High (TSPO [5]): 15.44
7 |  |  | CC(C)N(C)C(=O)[C@H]1CCCc2c1c1ccccc1n2CCF (racemic) [Compound 2, (S)—N-isopropyl-N-methyl-9-(2-fluoroethyl)-2,3,4,9-tetrahydro-1H-carbazole-4-carboxamide] |  | Low:High (TSPO [5]): 1.02; Ki (TSPO [6]): 44.9 nM; Ki (TSPO [7]): 43.8 nM
8 |  |  | COc1ccccc1CN(C(C)=O)c1cnccc1Oc1ccccc1 [PBR28, N-(2-methoxybenzyl)-N-(4-phenoxypyridin-3-yl)acetamide, reference compound] | 28 | 
9 |  |  | CCN(Cc1ccccc1)C(=O)[C@H]1CCCc2c1c1ccccc1n2CCF (racemic) [Compound 1, (S)—N-benzyl-N-ethyl-9-(2-fluoroethyl)-2,3,4,9-tetrahydro-1H-carbazole-4-carboxamide] |  | Low:High (TSPO [5]): 3.24; Ki (TSPO [6]): 5.98 nM; Ki (TSPO [7]): 1.85 nM
10 |  |  | COc1ccccc1CN(C(C)=O)c1cnccc1Oc1ccccc1 [[3H]PBR28] |  | lower TSPO affinity in LABs than in HABs (TSPO [8]): more than 10 fold
11 | 23 nM | 24 nM | CC(C)N(C)C(=O)[C@H]1CCCc2c1c1ccccc1n2CCF [Compound 2 E1, (S)—N-isopropyl-N-methyl-9-(2-fluoroethyl)-2,3,4,9-tetrahydro-1H-carbazole-4-carboxamide] | 1 | 
